pIC50: −log10 of the molar value. Calls of active or inactive are those of the source. The rule behind the calls is not given here.
Assays:
Assay type in all cases: functional, cell-based
[1] = Cell cycle arrest in mouse EN2 cells assessed as accumulation at G1 phase after 24 hrs by flow cytometry; conditions: EN2, 24 h
[2] = Cell cycle arrest in mouse EN2 cells assessed as accumulation at G1 phase after 24 hrs by flow cytometry relative to control
[3] = Cytotoxicity against mouse EN2 cells after 24 hrs by cell-count assay; conditions: EN2, 24 h
[4] = Cell cycle arrest in mouse EN2 cells assessed as accumulation at S phase after 24 hrs by flow cytometry relative to control
[5] = Cell cycle arrest in mouse EN2 cells assessed as accumulation at S phase after 48 hrs by flow cytometry relative to control
[6] = Cytotoxicity against mouse EN2 cells after 72 hrs by MTT assay; conditions: EN2, 72 h
[7] = Cytotoxicity against mouse EN2 cells after 24 hrs by MTT assay; conditions: EN2, 24 h
[8] = Cytotoxicity against mouse EN2 cells after 24 hrs by clonogenic assay; conditions: EN2, 24 h
EN2 [9] = assay: Cytotoxicity against mouse EN2 cells after 10 mins by MTT assay
EN2 [10] = assay: Cytotoxicity against mouse EN2 cells after 5 mins by MTT assay
EN2 [11] = assay: Cytotoxicity against mouse EN2 cells after 15 mins by MTT assay
[12] = Cytotoxicity against mouse EN2 cells after 2 hrs of incubation measured after 24 hrs by cell-count assay
[13] = Cell cycle arrest in mouse EN2 cells assessed as accumulation at G1 phase at 0.4 uM after 24 to 48 hrs by flow cytometry relative to control
[14] = Cytotoxicity against mouse EN2 cells at 50 uM after 24 hrs by clonogenic assay; conditions: EN2, 24 h
[15] = Cell cycle arrest in mouse EN2 cells assessed as accumulation at G1 phase after 2 hrs of incubation measured after 24 hrs relative to control
[16] = Cytotoxicity against mouse EN2 cells after 2 hrs of incubation measured after 2 days by MTT assay
[17] = Cytotoxicity against mouse EN2 cells after 2 hrs of incubation measured after 6 days by clonogenic assay
[18] = Cell cycle arrest in mouse EN2 cells assessed as accumulation at G1 phase at 0.4 uM after 12 hrs by flow cytometry relative to control

SMILES | pIC50 [1] | Activity [2] | pIC50 [3] | pIC50 [6] | pIC50 [7] | further results
C[C@@H]1CC[C@H]2[C@@H](C)C(=O)O[C@@H]3O[C@@]4(C)CC[C@@H]1[C@]32OO4 [ARTEMISININ] | 6.00 | inactive | 4.52 | 6.01 | 4.94 | Activity [4]: Dose-dependent effect; Activity [5]: inactive; pIC50 [8]: < 4.30
C[C@@H]1CC[C@@H]2[C@]34OO[C@](C)(CC[C@@H]13)O[C@H]4OC(=O)[C@@]21CO1 |  |  |  | 4.90 |  | 
C[C@@H]1CC[C@H]2[C@@H](C)C(=O)O[C@@H]3O[C@@]4(C)CC[C@@H]1[C@]32O4 [DEOXYARTEMISININ] |  |  |  | 3.95 |  | 
C[C@@H]1CC[C@@H]2[C@]34OO[C@](C)(CC[C@@H]13)O[C@H]4OC(=O)[C@]21CO1 |  |  |  | < 4.00 |  | 
C[C@H]1[C@H](O[C@H]2O[C@@H]3O[C@]4(C)CC[C@H]5[C@H](C)CC[C@@H]([C@H]2C)[C@@]35O4)O[C@@H]2O[C@]3(C)CC[C@H]4[C@H](C)CC[C@@H]1[C@@]24O3 [listing 1 of 2 here] |  |  |  | 4.00 |  | 
C[C@H]1[C@@H](O[C@H]2O[C@@H]3O[C@]4(C)CC[C@H]5[C@H](C)CC[C@@H]([C@H]2C)[C@@]35OO4)O[C@@H]2O[C@]3(C)CC[C@H]4[C@H](C)CC[C@@H]1[C@@]24OO3 | 6.00 | Active | 5.05 | 5.70 | 5.14 | Activity (EN2 [9]): Active; Activity (EN2 [10]): Active; Activity (EN2 [11]): Active; pIC50 [8]: < 4.30
C[C@H]1[C@H](O[C@H]2O[C@@H]3O[C@]4(C)CC[C@H]5[C@H](C)CC[C@@H]([C@H]2C)[C@@]35O4)O[C@@H]2O[C@]3(C)CC[C@H]4[C@H](C)CC[C@@H]1[C@@]24O3 [listing 2 of 2 here] |  |  |  | 5.05 |  | 
C[C@H]1[C@H](O[C@H]2O[C@@H]3O[C@]4(C)CC[C@H]5[C@H](C)CC[C@@H]([C@H]2C)[C@@]35OO4)O[C@@H]2O[C@]3(C)CC[C@H]4[C@H](C)CC[C@@H]1[C@@]24OO3 | 7.30 | Active | 6.27 | 6.96 | 6.46 | Activity (EN2 [9]): Active; pIC50 [12]: 5.03; Activity [13]: inactive; pIC50 [14]: 6.00; Activity [15]: Dose-dependent effect; pIC50 [15]: 6.00; Activity (EN2 [10]): Active; Activity (EN2 [11]): Active; pIC50 [16]: 5.44; pIC50 [17]: 4.25; Activity [18]: Active
